Earlier results as cited in patent US12358215B2, “Binders and methods of binder jetting including branched polymer binders and articles made therefrom” (VIRGINIA TECH INTELLECTUAL PROPERTIES, INC., priority 2019, dated 2025).

- solubility in cold water: only slightly soluble
SMILES: CC(=O)Nc1ccc(O)cc1 [Acetaminophen, acetaminophen]
